Assay results published in ChEMBL document CHEMBL4825659, “Terpenoids from Chinese Liverworts Scapania spp” (J Nat Prod, 2021).
pIC50: −log10 of the molar value. The source made the active and inactive calls. No cut-off for these calls is given here.

Experiments:
[1] = Cytotoxicity against mouse Hepa1c1c7 cells incubated for 24 hrs by MTT based assay; type: functional, cell-based; settings: Hepa-1c1c7, 24 h
[2] = biological target: NAD(P)H dehydrogenase [quinone] 1 (Mus musculus) (UniProt Q64669); assay: Induction of quinone reductase activity in mouse Hepa1c1c7 cells at 50 uM incubated for 24 hrs by MTT based assay relative to control; type: cell-based
NAD(P)H dehydrogenase [quinone] 1 (Mus musculus), sequence (Q64669 whole entry): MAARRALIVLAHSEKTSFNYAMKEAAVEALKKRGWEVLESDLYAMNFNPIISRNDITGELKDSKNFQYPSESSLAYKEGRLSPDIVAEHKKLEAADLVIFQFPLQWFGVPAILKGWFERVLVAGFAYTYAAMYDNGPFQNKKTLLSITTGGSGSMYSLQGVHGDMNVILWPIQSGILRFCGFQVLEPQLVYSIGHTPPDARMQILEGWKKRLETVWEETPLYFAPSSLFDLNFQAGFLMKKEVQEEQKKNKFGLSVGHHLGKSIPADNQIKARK

Compound	pIC50 [1]	Activity ([2]; filed as activator)	Activity [2]
CC(=O)O[C@@H]1C[C@H](C)[C@@]2(C)C[C@@]3(C4=CC(O)OC4=O)OC[C@]14C2(CC[C@@H]1O[C@@]14C)O3 (some centres undefined)	< 4.30	Active	–
C[C@H]1C[C@H]2O[C@@]3(C)[C@@H](O)CCC45O[C@@](C6=CC(=O)OC6O)(C[C@]14C)OC[C@@]253 (some centres undefined)	< 4.30	–	inactive
CC(=O)O[C@@H]1C[C@H](C)[C@@]2(C)C[C@@]3(C4=CC(=O)OC4O)OC[C@]14C2(CC[C@@H]1O[C@@]14C)O3 (some centres undefined)	< 4.30	Active	–
CC1(C)CC[C@@H](O)[C@]2(C)[C@@H]1C(=O)C[C@@]13C[C@H]4[C@@H](C(=O)[C@H]12)[C@]4(C)C3	< 4.30	–	inactive
C[C@H]1C[C@H]2O[C@@]3(C)[C@@H](O)CCC45O[C@@](c6ccoc6)(C[C@]14C)OC[C@@]253	< 4.30	–	inactive
CC(=O)O[C@@H]1C[C@H](C)[C@@]2(C)C[C@@]3(c4ccoc4)OC[C@]14C2(CC[C@@H]1O[C@@]14C)O3	< 4.30	–	inactive
CO[C@]1(C2=CC(=O)OC2O)C[C@]2(C)[C@@H](C)C[C@@H](OC(C)=O)[C@]3(COC(C)=O)C2(CC[C@@H]2O[C@@]23C)O1 (some centres undefined)	< 4.30	Active	–
